Measured values from US12329158B2, “Large-scale methods of uniformly coating packaging surfaces with a volatile antimicrobial to preserve food freshness” (AGROFRESH INC., priority 2013, dated 2025).
In brackets after ≈: the same amount, converted by molar mass.

Key:
Format in all cases: cell-based
Botrytis cinerea [1] = assay: Volatile MIC assay (Example 10); details: 72 h, volatile treatment, 3 days at 23 C, read-out: MIC (mg/L) BOTRCI
Experimental: (§1) 12-Well (6.5 mL volume per well) microtiter plates are used for the in vitro inhibition assay for volatile antimicrobial compounds. A 3-mL volume of full-strength Potato Dextrose Agar (PDA) is added to each well. After cooling, 1 μL of 1×10^5 per mL Botrytis cinerea and Penicillium expansum spore suspension is spot-pipetted to the center of the agar. Plates are inoculated immediately prior to volatile fungicide treatment. A Whatman #1 filter disk (Cat. No. 1001-0155) is placed, in duplicate, on the underside of a polyethylene PCR plate sealing film. […] The headspace around the inoculum is then sealed inside the well by the film with the adhering disk containing the fungicide by inverting the plates over the treated disks and sealing to prevent any of the chemical from flaking from the disk and falling onto the inoculated agar. After 3 days of storage at 23° C., the cultures are evaluated for percent growth relative to control based on measurement of fungal colony diameter.

Penicillium expansum [2] = assay: Volatile MIC assay (Example 10); details: 72 h, volatile treatment, 3 days at 23 C, read-out: MIC (mg/L) PENIEX
Experimental: as §1

Alternaria alternata = assay: Volatile MIC assay (Example 9); details: 72 h, headspace concentration, 3 days at 23 C, read-out: MIC (mg/L) ALTEAL
Experimental: (§2) A 3-mL volume of full-strength Potato Dextrose Agar (PDA) is added to each well. […] Plates are inoculated immediately prior to volatile fungicide treatment. A Whatman #1 filter disk (Cat. No. 1001-0155) is placed, in duplicate, on the underside of a polyethylene PCR plate sealing film. […] The acetone is permitted to evaporate for 5 minutes. The headspace around the inoculum is then sealed inside the well by the film with the adhering disk containing the fungicide by inverting the plates over the treated disks and sealing to prevent any of the chemical from flaking from the disk and falling onto the inoculated agar.

Botrytis cinerea [3] = assay: Volatile MIC assay (Example 9); details: 72 h, headspace concentration, 3 days at 23 C, read-out: MIC (mg/L) BOTRCI
Experimental: as §2

Monilinia fructicola = assay: Volatile MIC assay (Example 9); details: 72 h, headspace concentration, 3 days at 23 C, read-out: MIC (mg/L) MONIFC
Experimental: as §2

Penicillium expansum [4] = assay: Volatile MIC assay (Example 9); details: 72 h, headspace concentration, 3 days at 23 C, read-out: MIC (mg/L) PENIEX
Experimental: as §2

B. cinerea = assay: In vitro contact assay, amended agar (Example 24); details: Botrytis cinerea, 72 h; amended agar; 100% control; 3 days at 23 C; read-out: Contact MIC (mg/L) B. cinerea
Experimental: (§3) Contact assay: 6-well (16.5 mL volume per well) microtiter plates are used for an in vitro inhibition assay. […] A 7.5-mL volume of the amended media is added to each well of the microtiter plate. […] The plates are sealed with a clear film and incubated for 3 days at 23° C. After incubation, plates are evaluate for percent growth relative to acetone only control.

P. expansum = assay: In vitro contact assay, amended agar (Example 24); details: Penicillium expansum, 72 h; amended agar; 100% control; 3 days at 23 C; read-out: Contact MIC (mg/L) P. expansum
Experimental: as §3

Botrytis cinerea [5] = assay: In vitro volatile assay (Example 24); details: 72 h, headspace, 100% control, 3 days at 23 C, read-out: Volatile MIC (mg/L) B. cinerea
Experimental: (§4) Volatile assay: 12-well (6.5 mL volume per well) microtiter plates are used. A 3-mL volume of half strength PDA is added to each well. […] A Whatman #1 filter disk (Cat. No. 1001-0155) is placed, in duplicate, on the underside of a polyethylene PCR plate sealing film. […] The acetone is permitted to evaporate for 5 minutes. The headspace around the inoculum is then sealed inside the well by the film with the adhering disk containing the fungicide. Plates are inverted, placed over the treated disks, and sealed to prevent any of the chemical from flaking from the disk and falling onto the inoculated agar. […] Contact assay: 6-well (16.5 mL volume per well) microtiter plates are used for an in vitro inhibition assay. […] A 7.5-mL volume of the amended media is added to each well of the microtiter plate. […] The plates are sealed with a clear film and incubated for 3 days at 23° C. After incubation, plates are evaluate for percent growth relative to acetone only control.

Penicillium expansum [6] = assay: In vitro volatile assay (Example 24); details: 72 h, headspace, 100% control, 3 days at 23 C, read-out: Volatile MIC (mg/L) P. expansum
Experimental: as §4

[7] = system: Trichophyton mentagrophytes; assay: In vitro contact assay (Example 26); details: Trichophyton mentagrophytes, 120 h, 5 days at 28 C, 100% control, read-out: MIC (mg/L) Trichophyton mentagrophytes
Experimental: (§5) Half-strength Potato Dextrose Agar (PDA) is amended with a mixture of one of the test compounds in acetone or methanol to a final concentration of 50, 10, 2, 0.4 or 0.08 mg/L. A 3-mL volume of the amended media is added to each well of the microtiter plate. […] The plates are sealed with a clear film and incubated inverted for 5 days at 28° C.

Trichophyton rubrum [8] = assay: In vitro contact assay (Example 26); details: Trichophyton rubrum, 120 h, 5 days at 28 C, 100% control, read-out: MIC (mg/L) Trichophyton rubrum
Experimental: as §5

[9] = system: Trichophyton mentagrophytes; assay: In vitro volatile assay (Example 26); details: Trichophyton mentagrophytes, 120 h, 5 days at 28 C, 100% control, read-out: MIC (mg/L) Trichophyton mentagrophytes
Experimental: (§6) Volatile assay: 6-well (16.5 mL volume per well) microtiter plates are used in an in vitro inhibition assay for Compounds A and 31, and compared to other registered fungicides (5-fluorocytosine, Amphotericin B, aspofungin diacetate, Fluconazole and Itraconazole). A 7.5-mL volume of half strength PDA is added to each well. After drying, a mycelial plug (5 mm diameter) is aseptically obtained from actively growing cultures of Epidermophyton floccus, Trichophyton rubrum, or Trichophyton mentagrophytes and placed at the center of the plate with the mycelial side in contact with the agar. A Whatman #1 filter disk (Cat. No. 1001-325) is placed, in duplicate, on the underside of a polyethylene PCR plate sealing film. […] The headspace around the inoculum is then sealed inside the well by the film with the adhering disk containing the fungicide and incubated inverted for 5 days at 28° C.

Trichophyton rubrum [10] = assay: In vitro volatile assay (Example 26); details: Trichophyton rubrum, 120 h, 5 days at 28 C, 100% control, read-out: MIC (mg/L) Trichophyton rubrum
Experimental: as §6

Structure (SMILES) | MIC (Botrytis cinerea [1]) [mg/L] | MIC (Penicillium expansum [2]) [mg/L] | further results
NCCOB1OCc2ccccc21 [Compound 21] | 1.1 (≈ 6.21 µM) | 35.7 (≈ 202 µM) | 
CN(C)CCOB1OCc2ccccc21 [Compound 22] | 4.5 (≈ 21.9 µM) | 35.7 (≈ 174 µM) | 
CCCCOB1OCc2cc(F)ccc21 [Compound 30] |  |  | MIC (Alternaria alternata): 2.2 mg/L (≈ 10.6 µM); MIC (Botrytis cinerea [3]): 2.2 mg/L (≈ 10.6 µM); MIC (Monilinia fructicola): 2.2 mg/L (≈ 10.6 µM); MIC (Penicillium expansum [4]): 8.9 mg/L (≈ 42.8 µM)
CC(COB1OCc2cc(F)ccc21)OB1OCc2cc(F)ccc21 (stereo not shown) [Compound 31] |  |  | MIC (B. cinerea): 0.4 mg/L (≈ 1.16 µM); MIC (P. expansum): 2 mg/L (≈ 5.82 µM); MIC (Botrytis cinerea [5]): 0.6 mg/L (≈ 1.74 µM); MIC (Penicillium expansum [6]): 8.9 mg/L (≈ 25.9 µM); MIC [7]: 2 mg/L (≈ 5.82 µM); MIC (Trichophyton rubrum [8]): 10 mg/L (≈ 29.1 µM); MIC [9]: 2 mg/L (≈ 5.82 µM); MIC (Trichophyton rubrum [10]): 2 mg/L (≈ 5.82 µM)
NCCOB1OCc2cc(F)ccc21 [Compound 34] |  |  | MIC (Alternaria alternata): 2.2 mg/L (≈ 11.3 µM); MIC (Botrytis cinerea [3]): < 0.6 mg/L; MIC (Penicillium expansum [4]): 2.2 mg/L (≈ 11.3 µM); MIC (B. cinerea): 2 mg/L (≈ 10.3 µM); MIC (P. expansum): 0.4 mg/L (≈ 2.05 µM); MIC (Botrytis cinerea [5]): 0.6 mg/L (≈ 3.08 µM); MIC (Penicillium expansum [6]): 2.2 mg/L (≈ 11.3 µM)
COCCOB1OCc2cc(F)ccc21 [Compound 38] | 0.6 (≈ 2.86 µM) | 8.9 (≈ 42.4 µM) | 
COCCCOB1OCc2cc(F)ccc21 [Compound 39] | 0.6 (≈ 2.68 µM) | 8.9 (≈ 39.7 µM) | 
OCCOCCOCCOB1OCc2cc(F)ccc21 [Compound 55] | 4.5 (≈ 15.8 µM) | > 35.7 | 
OCCOCCOB1OCc2cc(F)ccc21 [Compound 62] | 2.2 (≈ 9.17 µM) | 8.9 (≈ 37.1 µM) | 
CN(C)CCCOB1OCc2cc(F)ccc21 [Compound 63] | 1.1 (≈ 4.64 µM) | 17.9 (≈ 75.5 µM) | 
NCCCOB1OCc2cc(F)ccc21 [Compound 64] | 1.1 (≈ 5.26 µM) | 8.9 (≈ 42.6 µM) | 
CN(CCO)CCOB1OCc2cc(F)ccc21 [Compound 72] | 35.7 (≈ 141 µM) | > 35.7 | 
OCCNCCOB1OCc2cc(F)ccc21 [Compound 73] | 35.7 (≈ 149 µM) | > 35.7 | 
CN(C)CCOB1OCc2cc(F)ccc21 [Compound 74] | 2.2 (≈ 9.86 µM) | 35.7 (≈ 160 µM) | 
OCCCCCCOB1OCc2cc(F)ccc21 [Compound 86] | 0.6 (≈ 2.38 µM) | 8.9 (≈ 35.3 µM) | 
CNCCOB1OCc2cc(F)ccc21 [Compound 87] | 0.6 (≈ 2.87 µM) | 8.9 (≈ 42.6 µM) | 
OB1OC(N2CCOCC2)c2ccccc21 (stereo not shown) [Compound 114] | 17.9 (≈ 81.7 µM) | > 35.7 | 
CC(C)(N)COB1OCc2cc(F)ccc21 [Compound 115] | 0.6 (≈ 2.69 µM) | 8.9 (≈ 39.9 µM) | 
